Experimental data reported in patent US8975417B2, “Pyrazolopyrrolidine derivatives and their use in the treatment of disease” (Novartis AG, priority 2013, dated 2015).

Columns and labels:
[1] = target: nuclear BRD4-NUT foci in HCC2494 NUT midline carcinoma cells (Homo sapiens (Human), UniProt O60885+Q86Y26); assay: Nut-foci formation assay; assay type: cell-based; conditions: 24 hours, read-out: HCS Brd4-NUT IC50
In short: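 HCC2494 cells carrying BRD4-NUT, treated 24 h at 37 °C with 3-fold dilutions from 10 μM. Fixed and stained with anti-NUT antibody, imaged automatically to count nuclear foci per nucleus.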

His-Brd4(44-477) = His-Brd4(44-477) (Homo sapiens (Human), UniProt O60885); assay: TR-FRET in-vitro binding assay for BRD4; conditions: biochemical
In short: (§1)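 His-tagged BRD2(60-472), BRD3(20-477) or BRD4(44-477), 45 nM in dispensing solution, with 60 nM tetra-acetylated histone H4 peptide (AcK5/8/12/16) in dispensing solution; HEPES pH 7.5, 50 mM NaCl, 0.1% BSA, 30 °C, 35 min. Eu-anti-His6 antibody plus streptavidin-APC added for TR-FRET read-out; 8-point compound dilutions.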

His-Brd3(20-477) = His-Brd3(20-477) (Homo sapiens (Human), UniProt Q15059); assay: TR-FRET in-vitro binding assay for BRD3; conditions: biochemical
Chain of His-Brd3(20-477) (Q15059 20-477): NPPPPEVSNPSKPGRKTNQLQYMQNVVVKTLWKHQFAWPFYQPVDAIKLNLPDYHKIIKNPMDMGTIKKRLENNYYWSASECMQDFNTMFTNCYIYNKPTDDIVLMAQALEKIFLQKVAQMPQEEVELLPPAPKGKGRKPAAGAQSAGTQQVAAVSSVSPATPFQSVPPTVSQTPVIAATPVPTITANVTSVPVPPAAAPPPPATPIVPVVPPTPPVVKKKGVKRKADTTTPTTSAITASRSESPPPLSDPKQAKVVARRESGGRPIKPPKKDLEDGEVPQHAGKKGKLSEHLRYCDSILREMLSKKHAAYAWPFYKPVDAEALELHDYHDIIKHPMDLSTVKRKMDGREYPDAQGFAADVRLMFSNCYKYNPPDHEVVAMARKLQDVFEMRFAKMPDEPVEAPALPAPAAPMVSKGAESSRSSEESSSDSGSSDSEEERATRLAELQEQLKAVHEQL
In short: as §1

With `Cc1nn(-c2ccnn2C)c2c1C(c1ccc(Cl)cc1)N(c1cc(C)c3nnc(C)n3n1)C2=O` (stereo not drawn) [Example 114, 4-(4-chlorophenyl)-5-(3,8-dimethyl-[1,2,4]triazolo[4,3-b]pyridazin-6-yl)-3-methyl-1-(1-methyl-1H-pyrazol-5-yl)-4,5-dihydropyrrolo[3,4-c]pyrazol-6(1H)-one] the IC50 [1] was 23.2 nM, the IC50 (His-Brd4(44-477)) was 27 nM and the IC50 (His-Brd3(20-477)) was 37 nM.

`CCn1nc2c(c1C)C(c1ccc(Cl)cc1)N(c1cc(C)c3nnc(C)n3c1)C2=O` (stereo not drawn) [Example 115, 4-(4-chlorophenyl)-5-(3,8-dimethyl-[1,2,4]triazolo[4,3-a]pyridin-6-yl)-2-ethyl-3-methyl-4,5-dihydropyrrolo[3,4-c]pyrazol-6(2H)-one] was tested, and the IC50 [1] was 39.7 nM, the IC50 (His-Brd4(44-477)) was 43 nM and the IC50 (His-Brd3(20-477)) was 46 nM.

`CCn1nc(C)c2c1C(=O)N(c1cc(C)c3nnc(C)n3c1)C2c1ccc(Cl)cc1` (stereo not drawn) [Example 116, 4-(4-chlorophenyl)-5-(3,8-dimethyl-[1,2,4]triazolo[4,3-a]pyridin-6-yl)-1-ethyl-3-methyl-4,5-dihydropyrrolo[3,4-c]pyrazol-6(1H)-one] gave an IC50 [1] of 27 nM, an IC50 (His-Brd4(44-477)) of 32 nM and an IC50 (His-Brd3(20-477)) of 32 nM.

In the case of `Cc1cc(N2C(=O)c3c(c(C4CC4)nn3-c3ccnn3C)C2c2ccc(Cl)cc2)cn2c(C)nnc12` (stereo not drawn) [Example 117, 4-(4-chlorophenyl)-3-cyclopropyl-5-(3,8-dimethyl-[1,2,4]triazolo[4,3-a]pyridin-6-yl)-1-(1-methyl-1H-pyrazol-5-yl)-4,5-dihydropyrrolo[3,4-c]pyrazol-6(1H)-one], the IC50 [1] is reported as 24.3 nM, the IC50 (His-Brd4(44-477)) is reported as 39 nM and the IC50 (His-Brd3(20-477)) is reported as 38 nM.

Molecule `Cc1nn(-c2ccnn2C)c2c1[C@@H](c1ccc(Cl)cc1)N(c1cc(C)c(=O)n(C)c1)C2=O` [Example 120, (R)-4-(4-chlorophenyl)-5-(1,5-dimethyl-6-oxo-1,6-dihydropyridin-3-yl)-3-methyl-1-(1-methyl-1H-pyrazol-5-yl)-4,5-dihydropyrrolo[3,4-c]pyrazol-6(1H)-one] has an IC50 [1] of 65.4 nM, an IC50 (His-Brd4(44-477)) of 55 nM and an IC50 (His-Brd3(20-477)) of 83 nM.

With `Cc1nn(-c2ccnn2C)c2c1[C@H](c1ccc(Cl)cc1)N(c1cc(C)c(=O)n(C)c1)C2=O` [Example 121, (S)-4-(4-chlorophenyl)-5-(1,5-dimethyl-6-oxo-1,6-dihydropyridin-3-yl)-3-methyl-1-(1-methyl-1H-pyrazol-5-yl)-4,5-dihydropyrrolo[3,4-c]pyrazol-6(1H)-one] the IC50 [1] was 6110 nM, the IC50 (His-Brd4(44-477)) was 4000 nM and the IC50 (His-Brd3(20-477)) was 5400 nM.

`Cc1nn(-c2ccnn2C)c2c1[C@H](c1ccc(Cl)cc1)N(c1cc(C)c3nnc(C)n3c1)C2=O` [Example 124, (S)-4-(4-chlorophenyl)-5-(3,8-dimethyl-[1,2,4]triazolo[4,3-a]pyridin-6-yl)-3-methyl-1-(1-methyl-1H-pyrazol-5-yl)-4,5-dihydropyrrolo[3,4-c]pyrazol-6(1H)-one] gave an IC50 [1] of 1730 nM, an IC50 (His-Brd4(44-477)) of 25000 nM and an IC50 (His-Brd3(20-477)) of 37000 nM.

`Cc1nn(-c2ccnn2C)c2c1[C@@H](c1ccc(Cl)cc1)N(c1cc(C)c3nnc(C)n3c1)C2=O` [Example 125, (R)-4-(4-chlorophenyl)-5-(3,8-dimethyl-[1,2,4]triazolo[4,3-a]pyridin-6-yl)-3-methyl-1-(1-methyl-1H-pyrazol-5-yl)-4,5-dihydropyrrolo[3,4-c]pyrazol-6(1H)-one] showed an IC50 [1] of 32.3 nM, an IC50 (His-Brd4(44-477)) of 25 nM and an IC50 (His-Brd3(20-477)) of 32 nM.

Work on `CC(=O)Nc1cc(N2C(=O)c3c(c(C)nn3C3CC3)C2c2ccc(Cl)cc2)nn2c(C)nnc12` (stereo not drawn) [Example 126, N-(6-(4-(4-chlorophenyl)-1-cyclopropyl-3-methyl-6-oxopyrrolo[3,4-c]pyrazol-5-(1H,4H,6H)-yl)-3-methyl-[1,2,4]triazolo[4,3-b]pyridazin-8-yl)acetamide] yielded an IC50 [1] of 587 nM, an IC50 (His-Brd4(44-477)) of 1100 nM and an IC50 (His-Brd3(20-477)) greater than 37000 nM.

`COc1ncccc1-n1nc(C)c2c1C(=O)N(c1cc(C)c(=O)n(C)c1)[C@H]2c1ccc(Cl)cc1` [Example 127, (S)-4-(4-chlorophenyl)-5-(1,5-dimethyl-6-oxo-1,6-dihydropyridin-3-yl)-1-(2-methoxypyridin-3-yl)-3-methyl-4,5-dihydropyrrolo[3,4-c]pyrazol-6(1H)-one] was tested, and the IC50 [1] was greater than 10000 nM, the IC50 (His-Brd4(44-477)) was 5700 nM and the IC50 (His-Brd3(20-477)) was 5100 nM.

Molecule `COc1ncccc1-n1nc(C)c2c1C(=O)N(c1cc(C)c(=O)n(C)c1)[C@@H]2c1ccc(Cl)cc1` [Example 128, (R)-4-(4-chlorophenyl)-5-(1,5-dimethyl-6-oxo-1,6-dihydropyridin-3-yl)-1-(2-methoxypyridin-3-yl)-3-methyl-4,5-dihydropyrrolo[3,4-c]pyrazol-6(1H)-one] has an IC50 [1] of 53.3 nM, an IC50 (His-Brd4(44-477)) of 36 nM and an IC50 (His-Brd3(20-477)) of 37 nM.

Molecule `Cc1cc(N2C(=O)c3c(c(CO)nn3C3CC3)C2c2ccc(Cl)cc2)cn2c(C)nnc12` (stereo not drawn) [Example 131, 4-(4-chlorophenyl)-1-cyclopropyl-5-(3,8-dimethyl-[1,2,4]triazolo[4,3-a]pyridin-6-yl)-3-(hydroxymethyl)-4,5-dihydropyrrolo[3,4-c]pyrazol-6(1H)-one] has an IC50 [1] of 27.7 nM, an IC50 (His-Brd4(44-477)) of 36 nM and an IC50 (His-Brd3(20-477)) of 52 nM.

`Cc1nn(C2COC2)c2c1C(c1ccc(Cl)cc1)N(c1cc(C)c(=O)n(C)c1)C2=O` (stereo not drawn) [Example 135, 4-(4-chlorophenyl)-5-(1,5-dimethyl-6-oxo-1,6-dihydropyridin-3-yl)-3-methyl-1-(oxetan-3-yl)-4,5-dihydropyrrolo[3,4-c]pyrazol-6(1H)-one] was tested, and the IC50 [1] was 93.4 nM, the IC50 (His-Brd4(44-477)) was 140 nM and the IC50 (His-Brd3(20-477)) was 130 nM.

Work on `Cc1cc(N2C(=O)c3nn(C4COC4)c(C)c3C2c2ccc(Cl)cc2)cn2c(C)nnc12` (stereo not drawn) [Example 136, 4-(4-chlorophenyl)-5-(3,8-dimethyl-[1,2,4]triazolo[4,3-a]pyridin-6-yl)-3-methyl-2-(oxetan-3-yl)-4,5-dihydropyrrolo[3,4-c]pyrazol-6(2H)-one] yielded an IC50 [1] of 92.8 nM, an IC50 (His-Brd4(44-477)) of 110 nM and an IC50 (His-Brd3(20-477)) of 130 nM.

For `Cc1nn(C2COC2)c2c1C(c1ccc(Cl)cc1)N(c1cc(C)c3nnc(C)n3c1)C2=O` (stereo not drawn) [Example 137, 4-(4-chlorophenyl)-5-(3,8-dimethyl-[1,2,4]triazolo[4,3-a]pyridin-6-yl)-3-methyl-1-(oxetan-3-yl)-4,5-dihydropyrrolo[3,4-c]pyrazol-6(1H)-one], the IC50 [1] was 57.7 nM, the IC50 (His-Brd4(44-477)) was 80 nM and the IC50 (His-Brd3(20-477)) was 100 nM.

With `Cc1nn(C2CN(C)C2)c2c1C(c1ccc(Cl)cc1)N(c1cc(C)c(=O)n(C)c1)C2=O` (stereo not drawn) [Example 140, 4-(4-chlorophenyl)-5-(1,5-dimethyl-6-oxo-1,6-dihydropyridin-3-yl)-3-methyl-1-(1-methylazetidin-3-yl)-4,5-dihydropyrrolo[3,4-c]pyrazol-6(1H)-one] the IC50 [1] was 435 nM, the IC50 (His-Brd4(44-477)) was 320 nM and the IC50 (His-Brd3(20-477)) was 440 nM.

Molecule `Cc1cc(N2C(=O)c3nn(C(=O)N(C)C)c(C)c3C2c2ccc(Cl)cc2)cn(C)c1=O` (stereo not drawn) [Example 141, 4-(4-chlorophenyl)-5-(1,5-dimethyl-6-oxo-1,6-dihydropyridin-3-yl)-N,N,3-trimethyl-6-oxo-5,6-dihydropyrrolo[3,4-c]pyrazole-2(4H)-carboxamide] has an IC50 [1] of 231 nM, an IC50 (His-Brd4(44-477)) of 170 nM and an IC50 (His-Brd3(20-477)) of 130 nM.

`Cc1nn(C(=O)N(C)C)c2c1C(c1ccc(Cl)cc1)N(c1cc(C)c(=O)n(C)c1)C2=O` (stereo not drawn) [Example 142, 4-(4-chlorophenyl)-5-(1,5-dimethyl-6-oxo-1,6-dihydropyridin-3-yl)-N,N,3-trimethyl-6-oxo-5,6-dihydropyrrolo[3,4-c]pyrazole-1(4H)-carboxamide] was tested, and the IC50 [1] was 149 nM, the IC50 (His-Brd4(44-477)) was 190 nM and the IC50 (His-Brd3(20-477)) was 150 nM.
